Patent US10954252B1, “Inhibitors of human immunodeficiency virus replication” (ViiV HEALTHCARE UK (NO.5) LIMITED, priority 2017, dated 2021)
Counter-ions that a name gives are not always drawn.

Tests used:
[1] = Compound cytotoxicity, XTT-based colorimetric assay; assay type: cell-based
In short: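 CC50 from uninfected MT2 cells run under the antiviral-assay protocol without virus. Viability read on day 4 by XTT colorimetric assay.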

[2] = tested on: recombinant NL4-3 virus (nef section replaced with Renilla luciferase gene) in MT-2 cells; assay: HIV cell culture assay (antiviral activity, luciferase readout); assay type: cell-based; conditions: MT-2 cells infected for 4-5 days with recombinant NL4-3 luciferase virus
In short: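 NL4-3 reporter virus carrying Renilla luciferase in place of part of nef, produced in 293T cells, was used to infect MT-2 cells for 4-5 days with serial compound dilutions. Luciferase activity was read with a live-cell substrate; EC50 derived from the median effect equation.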

[3] = human, uninfected MT2 cells, Table 1a, day 4, XTT
[4] = human, uninfected MT2 cells, Table 1, day 4, XTT

Row | SMILES | CC50 at 4 days [1, 3] [nM] | EC50 ([2]; Renilla, NL43, Table 1a) [nM] | other results
1 | CC(C)c1ccc(-n2c([C@H](Cc3cc(F)cc(F)c3)NC(=O)Cc3c[nH]c4ccc(O)cc34)nc3cc(C#N)ccc3c2=O)cn1 [Example 162, (S)—N-(1-(7-cyano-3-(6-isopropylpyridin-3-yl)-4-oxo-3,4-dihydroquinazolin-2-yl)-2-(3,5-difluorophenyl)ethyl)-2-(5-hydroxy-1H-indol-3-yl)acetamide] | > 10000 | 6.56 | 
2 | CSc1nc2nc(C(Cc3cc(F)cc(F)c3)NC(=O)Cn3nc(C(F)F)c4c3C(F)(F)[C@@H]3C[C@H]43)c(-c3ccc(Cl)c4c(NS(C)(=O)=O)nn(C)c34)cc2s1 (stereo partly drawn) [Example 193, N-(1-(6-(4-chloro-1-methyl-3-(methylsulfonamido)-1H-indazol-7-yl)-2-(methylthio)thiazolo[4,5-b]pyridin-5-yl)-2-(3,5-difluorophenyl)ethyl)-2-((3bS,4aR)-3-(difluoromethyl)-5,5-difluoro-3b,4,4a,5-tetrahydro-1H-cyclopropa[3,4]cyclopenta[1,2-c]pyrazol-1-yl)acetamide] | > 10000 | 0.18 | 
3 | Cn1nc(NS(C)(=O)=O)c2c(Cl)ccc(-n3c([C@H](Cc4cc(F)cc(F)c4)NC(=O)Cn4nc(C(F)F)c5c4C(F)(F)[C@@H]4C[C@H]54)nc4cccc(C(F)(F)F)c4c3=O)c21 (single isomer, unassigned) [Example 127] | > 1000 |  | EC50 ([2]; Table 1a): 379 nM
4 | Cn1nc(NS(C)(=O)=O)c2c(Cl)ccc(-c3cc4scnc4nc3C(Cc3cc(F)cc(F)c3)NC(=O)Cn3nc(C(F)F)c4c3C(F)(F)[C@@H]3C[C@H]43)c21 (single isomer, unassigned) [Example 1.4] |  |  | CC50 at 4 days [1, 4]: > 10000 nM; EC50 ([2]; Table 1): 0.1 nM
5 | Cn1nc(NS(C)(=O)=O)c2c(Cl)ccc(-n3c([C@H](Cc4cc(F)cc(F)c4)NC(=O)Cn4ccc(C5CC5)n4)nc4c(F)ccc(F)c4c3=O)c21 (single isomer, unassigned) [Example 145] | > 1000 |  | EC50 ([2]; Table 1a): 30.2 nM
6 | Cn1nc(NS(C)(=O)=O)c2c(Cl)ccc(-n3c([C@H](Cc4cc(F)cc(F)c4)NC(=O)Cn4nc(C(F)F)c5c4C(F)(F)[C@@H]4C[C@H]54)nc4cc(F)cc(F)c4c3=O)c21 (single isomer, unassigned) [Example 130] | > 1000 | 0.15 | 
7 | Cn1nc(NS(C)(=O)=O)c2c(Cl)ccc(-c3nc4ccccc4nc3[C@@H](Cc3cc(F)cc(F)c3)NC(=O)Cn3nc(C(F)F)c4c3C(F)(F)[C@@H]3C[C@H]43)c21 [Example 155, N—((R)-1-(3-(4-chloro-1-methyl-3-(methylsulfonamido)-1H-indazol-7-yl)quinoxalin-2-yl)-2-(3,5-difluorophenyl)ethyl)-2-((3bS,4aR)-3-(difluoromethyl)-5,5-difluoro-3b,4,4a,5-tetrahydro-1H-cyclopropa[3,4]cyclopenta[1,2-c]pyrazol-1-yl)acetamide] | > 10000 | 35.8 | 
8 | Cn1nc(NS(C)(=O)=O)c2c(Cl)ccc(-n3c([C@H](Cc4cc(F)cc(F)c4)NC(=O)Cn4nc(C(F)F)c5c4C(F)(F)[C@@H]4C[C@H]54)nc4cc(C(C)(F)F)ccc4c3=O)c21 (single isomer, unassigned) [Example 196] | > 1000 | 0.081 | 
9 | O=C(Cn1nc(C(F)F)c2c1C(F)(F)[C@@H]1C[C@H]21)N[C@H](Cc1cc(F)cc(F)c1)c1nc2cc[nH]c2cc1-c1ccc(S(=O)(=O)N2CCOCC2)cc1 [Example 66, 2-((3bS,4aR)-3-(difluoromethyl)-5,5-difluoro-3b,4,4a,5-tetrahydro-1H-cyclopropa[3,4]cyclopenta[1,2-c]pyrazol-1-yl)-N—((R)-2-(3,5-difluorophenyl)-1-(6-(4-(morpholinosulfonyl)phenyl)-1H-pyrrolo[3,2-b]pyridin-5-yl)ethyl)acetamide] | 10000 | 1540 | 
10 | Cn1nc(NS(C)(=O)=O)c2c(Cl)ccc(-n3c([C@H](Cc4cc(F)cc(F)c4)NC(=O)Cn4nc(C(F)F)c5c4C(F)(F)[C@@H]4C[C@H]54)nc4cc(Cl)cc(Cl)c4c3=O)c21 (single isomer, unassigned) [Example 179] | > 1000 |  | EC50 ([2]; Table 1a): 0.077 nM
11 | O=C(Cn1nc(C(F)F)c2c1C(F)(F)[C@@H]1C[C@H]21)NC(Cc1cc(F)cc(F)c1)c1ncc2nc[nH]c2c1-c1ccc2scnc2c1 (single isomer, unassigned) [Example 7.1] |  |  | CC50 at 4 days [1, 4]: 16200 nM; EC50 ([2]; Table 1): 140 nM
12 | C[Si](C)(C)CCOCn1ncc2nc(C(Cc3cc(F)cc(F)c3)NC(=O)Cc3c[nH]c4ccc(F)cc34)c(-c3ccc4scnc4c3)cc21 (stereo not drawn) [Int 6a, N-(1-(6-(benzo[d]thiazol-5-yl)-1-((2-(trimethylsilyl)ethoxy)methyl)-1H-pyrazolo[4,3-b]pyridin-5-yl)-2-(3,5-difluorophenyl)ethyl)-2-(5-fluoro-1H-indol-3-yl)acetamide] |  |  | CC50 at 4 days ([1]; human; Table 1; uninfected MT2 cells, day 4, XTT): 29200 nM; EC50 ([2]; Renilla, NL43, Table 1): 110 nM
13 | CC(C)(c1ccc2c(=O)n(-c3ccc(Cl)c4c(NS(=O)(=O)C5CC5)nn(CC(F)F)c34)c([C@H](Cc3cc(F)cc(F)c3)NC(=O)Cn3nc(C(F)F)c4c3C(F)(F)[C@@H]3C[C@H]43)nc2c1)S(C)(=O)=O [Example 214, N—((S)-1-(3-(4-chloro-3-(cyclopropanesulfonamido)-1-(2,2-difluoroethyl)-1H-indazol-7-yl)-7-(2-(methylsulfonyl)propan-2-yl)-4-oxo-3,4-dihydroquinazolin-2-yl)-2-(3,5-difluorophenyl)ethyl)-2-((3bS,4aR)-3-(difluoromethyl)-5,5-difluoro-3b,4,4a,5-tetrahydro-1H-cyclopropa[3,4]cyclopenta[1,2-c]pyrazol-1-yl)acetamide, TFA] | > 1000 | 0.071 | 
14 | CC(C)(c1ccc2c(=O)n(-c3ccc(Cl)c4c(NS(C)(=O)=O)nn(CC(F)F)c34)c([C@H](Cc3cc(F)cc(F)c3)NC(=O)Cn3nc(C(F)F)c4c3C(F)(F)[C@@H]3C[C@H]43)nc2c1)S(C)(=O)=O [Example 213, N—((S)-1-(3-(4-chloro-1-(2,2-difluoroethyl)-3-(methylsulfonamido)-1H-indazol-7-yl)-7-(2-(methylsulfonyl)propan-2-yl)-4-oxo-3,4-dihydroquinazolin-2-yl)-2-(3,5-difluorophenyl)ethyl)-2-((3bS,4aR)-3-(difluoromethyl)-5,5-difluoro-3b,4,4a,5-tetrahydro-1H-cyclopropa[3,4]cyclopenta[1,2-c]pyrazol-1-yl)acetamide] | > 1000 | 0.28 | 
15 | Nc1c(-c2ccc3c(c2)C(=O)NC3)c([C@H](Cc2cc(F)cc(F)c2)NC(=O)Cn2nc(C(F)F)c3c2C(F)(F)[C@@H]2C[C@H]32)nc2ncnn12 [Example 62, N—((S)-1-(7-amino-6-(3-oxoisoindolin-5-yl)-[1,2,4]triazolo[1,5-a]pyrimidin-5-yl)-2-(3,5-difluorophenyl)ethyl)-2-((3bS,4aR)-3-(difluoromethyl)-5,5-difluoro-3b,4,4a,5-tetrahydro-1H-cyclopropa[3,4]cyclopenta[1,2-c]pyrazol-1-yl)acetamide] | > 10000 | 86.3 | 
